Data published in ChEMBL document CHEMBL5614409, “Discovery of potent HIV-1 NNRTIs by CuAAC click-chemistry-based miniaturized synthesis, rapid screening and structure optimization” (Eur J Med Chem, 2024).
Each block holds one molecule with its values, some of them ahead of it.

Experiments:
[1] = target: Human immunodeficiency virus type 1 reverse transcriptase (Human immunodeficiency virus 1) (UniProt Q72547); experiment: Inhibition of HIV-1 reverse transcriptase incubated for 2 hrs in presence of template and viral nucleotides by ELISA relative to control; parameters: concentration or dose not given beside the values; settings: concentration not given here
[2] = Cytotoxicity against human MT4 cells assessed as reduction in cell viability incubated for 5 days by MTT method; type: toxicity, cell-based; settings: time 5 day
[3] = system: Human immunodeficiency virus 1; experiment: Antiviral activity against HIV1 IIIB harboring L100I mutant infected in MT4 cells assessed as reduction in virus induced cytopathic effect incubated for 5 days by MTT method; type: functional, organism-based; settings: Human immunodeficiency virus 1, IIIB, MT4, 120 h
[4] = system: Human immunodeficiency virus 1; experiment: Antiviral activity against HIV1 IIIB infected in MT4 cells assessed as reduction in virus induced cytopathic effect incubated for 5 days by MTT method; type: functional, organism-based; settings: Human immunodeficiency virus 1, IIIB, MT4, 120 h
[5] = system: Human immunodeficiency virus 1; experiment: Antiviral activity against HIV1 IIIB harboring Y181C mutant infected in MT4 cells assessed as reduction in virus induced cytopathic effect incubated for 5 days by MTT method; type: functional, organism-based; settings: Human immunodeficiency virus 1, IIIB, MT4, 120 h
[6] = system: Human immunodeficiency virus 1; experiment: Antiviral activity against HIV1 IIIB harboring RES056 mutant infected in MT4 cells assessed as reduction in virus induced cytopathic effect incubated for 5 days by MTT method; type: functional, organism-based; settings: Human immunodeficiency virus 1, IIIB, MT4, 120 h
[7] = system: Human immunodeficiency virus 1; experiment: Antiviral activity against HIV1 IIIB harboring K103 N mutant infected in MT4 cells assessed as reduction in virus induced cytopathic effect incubated for 5 days by MTT method; type: functional, organism-based; settings: Human immunodeficiency virus 1, IIIB, MT4, 120 h
[8] = system: Human immunodeficiency virus 1; experiment: Antiviral activity against HIV1 IIIB harboring E138K mutant infected in MT4 cells assessed as reduction in virus induced cytopathic effect incubated for 5 days by MTT method; type: functional, organism-based; settings: Human immunodeficiency virus 1, IIIB, MT4, 120 h
[9] = Selectivity index, ratio of CC50 for human MT4 cells to EC50 for antiviral activity against HIV1 IIIB infected in MT4 cells; type: toxicity, cell-based; settings: read-out: Ratio CC50/EC50
[10] = system: Human immunodeficiency virus 1; experiment: Antiviral activity against HIV1 IIIB harboring Y188L mutant infected in MT4 cells assessed as reduction in virus induced cytopathic effect incubated for 5 days by MTT method; type: functional, organism-based; settings: Human immunodeficiency virus 1, IIIB, MT4, 120 h
[11] = system: Human immunodeficiency virus 1; experiment: Antiviral activity against HIV1 IIIB harboring F227L/V106A double mutant infected in MT4 cells assessed as reduction in virus induced cytopathic effect incubated for 5 days by MTT method; type: functional, organism-based; settings: Human immunodeficiency virus 1, IIIB, MT4, 120 h

inhibition [1]: 65.3%
Structure (SMILES): COC(=O)Cn1cc(CCNc2nccc(Oc3c(C)cc(/C=C/C#N)cc3C)n2)nn1

Structure (SMILES): O=C1Nc2ccc(Cl)cc2[C@@](C#CC2CC2)(C(F)(F)F)O1 [EFAVIRENZ]
CC50 at 120 h [2]: > 6350 nM

Structure (SMILES): Cc1cc(/C=C/C#N)cc(C)c1Oc1nc(NC2CCN(Cc3cn(CC(=O)NC4CCOCC4)nn3)CC2)nc2c1COC2
EC50 [3]: 21 nM
EC50 [4]: 11 nM
EC50 [5]: 38 nM
EC50 [6]: 385 nM
EC50 [7]: 16 nM
EC50 [8]: 25 nM
selectivity ratio [9]: 10400
CC50 at 120 h [2]: 112000 nM
EC50 [10]: 159 nM
EC50 [11]: 687 nM

Structure (SMILES): CNC(=O)Cn1cc(CN2CCC(Nc3nc4c(c(Oc5c(C)cc(/C=C/C#N)cc5C)n3)COC4)CC2)nn1
EC50 [3]: 17 nM
EC50 [4]: 4 nM
EC50 [5]: 28 nM
EC50 [6]: 805 nM
EC50 [7]: 8 nM
EC50 [8]: 17 nM
selectivity ratio [9]: 31300
CC50 at 120 h [2]: 119000 nM
EC50 [10]: 179 nM
EC50 [11]: 945 nM

Structure (SMILES): Cc1cc(/C=C/C#N)cc(C)c1Oc1nc(NC2CCN(Cc3cn(CC(=O)NC4CC4)nn3)CC2)nc2ccccc12
EC50 [3]: 19 nM
EC50 [4]: 5 nM
EC50 [5]: 41 nM
EC50 [6]: 232 nM
EC50 [7]: 9 nM
EC50 [8]: 29 nM
selectivity ratio [9]: 4150
CC50 at 120 h [2]: 22400 nM
EC50 [10]: 58 nM
EC50 [11]: 546 nM

Structure (SMILES): Cc1cc(/C=C/C#N)cc(C)c1Oc1nc(NC2CCN(Cc3cn(CC(N)=O)nn3)CC2)nc2c1COC2
EC50 [3]: 37 nM
EC50 [4]: 13 nM
EC50 [5]: 57 nM
EC50 [6]: 2460 nM
EC50 [7]: 32 nM
EC50 [8]: 31 nM
selectivity ratio [9]: 9570
CC50 at 120 h [2]: 125000 nM
EC50 [10]: 419 nM
EC50 [11]: 268 nM

Structure (SMILES): CCNC(=O)Cn1cc(CN2CCC(Nc3nc(Oc4c(C)cc(/C=C/C#N)cc4C)c4ccccc4n3)CC2)nn1
EC50 [3]: 18 nM
EC50 [4]: 5 nM
EC50 [5]: 33 nM
EC50 [6]: 241 nM
EC50 [7]: 10 nM
EC50 [8]: 36 nM
selectivity ratio [9]: 4230
CC50 at 120 h [2]: 23700 nM
EC50 [10]: 60 nM
EC50 [11]: 927 nM

Structure (SMILES): Cc1cc(/C=C/C#N)cc(C)c1Oc1ccnc(NC2CCN(Cc3cn(CC(=O)NC4CCOCC4)nn3)CC2)n1
EC50 [3]: 19 nM
EC50 [4]: 4 nM
EC50 [5]: 22 nM
EC50 [6]: 190 nM
EC50 [7]: 5 nM
EC50 [8]: 34 nM
selectivity ratio [9]: 4560
CC50 at 120 h [2]: 19200 nM
EC50 [10]: 522 nM
EC50 [11]: 232 nM

Structure (SMILES): CCNC(=O)Cn1cc(CN2CCC(Nc3nc4c(c(Oc5c(C)cc(/C=C/C#N)cc5C)n3)COC4)CC2)nn1
EC50 [3]: 13 nM
EC50 [4]: 4 nM
EC50 [5]: 20 nM
EC50 [6]: 512 nM
EC50 [7]: 6 nM
EC50 [8]: 22 nM
selectivity ratio [9]: 33200
CC50 at 120 h [2]: 120000 nM
EC50 [10]: 175 nM
EC50 [11]: 259 nM

inhibition [1]: 51.3%
Structure (SMILES): Cc1cc(C#N)cc(C)c1Oc1ccnc(NCCc2cn(Cc3ccc(Cl)cc3)nn2)n1

inhibition [1]: 89.8%
Structure (SMILES): Cc1cc(C#N)cc(C)c1Oc1ccnc(NC2CCN(Cc3cn(Cc4ccc(B(O)O)cc4)nn3)CC2)n1

Structure (SMILES): Cc1cc(/C=C/C#N)cc(C)c1Oc1ccnc(NC2CCN(Cc3cn(CC(N)=O)nn3)CC2)n1
EC50 [3]: 30 nM
EC50 [4]: 2 nM
EC50 [5]: 21 nM
EC50 [6]: 547 nM
EC50 [7]: 3 nM
EC50 [8]: 24 nM
selectivity ratio [9]: 21600
CC50 at 120 h [2]: 47400 nM
EC50 [10]: 729 nM
EC50 [11]: 188 nM

Structure (SMILES): Cc1cc(/C=C/C#N)cc(C)c1Oc1nc(NC2CCN(Cc3cn(CC(=O)NC4CCOCC4)nn3)CC2)nc2ccsc12
EC50 [3]: 9 nM
EC50 [4]: 5 nM
EC50 [5]: 19 nM
EC50 [6]: 101 nM
EC50 [7]: 4 nM
EC50 [8]: 20 nM
selectivity ratio [9]: 3060
CC50 at 120 h [2]: 15600 nM
EC50 [10]: 40 nM
EC50 [11]: 107 nM

inhibition [1]: 89.3%
Structure (SMILES): Cc1cc(C#N)cc(C)c1Oc1ccnc(NC2CCN(Cc3cn(Cc4ccc(S(N)(=O)=O)cc4)nn3)CC2)n1

Structure (SMILES): Cc1cc(C#N)cc(C)c1Oc1ccnc(NC2CCN(Cc3cn(CC(=O)Nc4ccc(S(C)(=O)=O)cc4)nn3)CC2)n1
EC50 [3]: 228 nM
EC50 [4]: 5 nM
EC50 [5]: 34 nM
EC50 [6]: 3410 nM
EC50 [7]: 16 nM
EC50 [8]: 31 nM
selectivity ratio [9]: 2690
CC50 at 120 h [2]: 12200 nM
EC50 [10]: 260 nM
EC50 [11]: 2880 nM
inhibition [1]: 93.8%
